Reference: DBAASP
In brackets after ≈: the same amount, converted by molar mass.

Assays:
Test in all cases: ≥ marks a high value that may be exact or a test limit, other limits are often not marked, values filed in µg/mL are converted to µM
[1] = system: Pseudomonas aeruginosa PAO1
[2] = system: Streptococcus pyogenes M1T1 5448
[3] = system: Staphylococcus aureus USA 300
Escherichia coli BL21 = system: Escherichia coli BL21
[4] = system: Micrococcus luteus ATCC 10240
[5] = system: Staphylococcus epidermidis ATCC 12228
[6] = system: Bacillus subtilis ATCC 6633
[7] = system: Staphylococcus aureus ATCC 6538P
[8] = system: Pseudomonas aeruginosa ATCC 27853
[9] = system: Klebsiella pneumoniae ATCC 10031
[10] = system: Salmonella enterica subsp. enterica serovar Typhimurium ATCC 14028
[11] = system: Shigella dysenteriae ATCC 9752
[12] = system: Escherichia coli ATCC 25922
Pseudomonas aeruginosa = system: Pseudomonas aeruginosa
Acinetobacter baumannii = system: Acinetobacter baumannii
Streptococcus pneumoniae = system: Streptococcus pneumoniae
[13] = system: Staphylococcus aureus ATCC 43300
Enterococcus faecium = system: Enterococcus faecium
Klebsiella pneumoniae = system: Klebsiella pneumoniae
[14] = system: Staphylococcus aureus ATCC 33591
[15] = system: Enterococcus faecium ATCC 700221
[16] = system: Staphylococcus aureus ATCC 25923
[17] = system: Listeria monocytogenes EGD
[18] = system: Staphylococcus aureus ATCC 29231
[19] = system: Candida albicans ATCC 10231
[20] = system: Acinetobacter baumannii ATCC 7978
[21] = system: Klebsiella pneumoniae WGLW2
[22] = system: Klebsiella aerogenes ATCC 13048
[23] = system: Batrachochytrium dendrobatidis JEL-197

Question: Which MIC [1] does the source give for `CC[C@H](C)[C@H](NC(=O)[C@H](CCCCN)NC(=O)[C@H](CCCCN)NC(=O)CNC(=O)[C@H](CCC(=O)O)NC(=O)[C@H](CCC(N)=O)NC(=O)[C@@H](NC(=O)[C@@H](NC(=O)[C@H](CCCCN)NC(=O)[C@H](CCCCN)NC(=O)[C@H](CC(C)C)NC(=O)[C@H](CCCN=C(N)N)NC(=O)[C@H](CCC(N)=O)NC(=O)[C@H](Cc1ccccc1)NC(=O)[C@@H](NC(=O)[C@H](CCCCN)NC(=O)[C@H](CCC(=O)O)NC(=O)[C@H](CCCCN)NC(=O)CNC(=O)[C@H](C)N)[C@@H](C)CC)[C@@H](C)O)[C@@H](C)CC)C(=O)N[C@@H](C)C(=O)N[C@@H](CCCCN)C(=O)N[C@@H](CCCN=C(N)N)C(=O)N[C@@H](C)C(=O)N[C@@H](Cc1c[nH]c2ccccc12)C(=O)O` [AGKEKIFQRLKKTIQEGKKIAKRAW] here?
Answer: 64 µM (≈ 189 µg/mL)

Question: And the MIC [2]?
Answer: ≥ 128 µM

Question: And the MIC [3]?
Answer: 4 µM (≈ 11.8 µg/mL)

Question: And the MIC (Escherichia coli BL21)?
Answer: 16 µM (≈ 47.3 µg/mL)

Question: What does the source list for `CC[C@H](C)[C@H](NC(=O)[C@H](CO)NC(=O)[C@H](CCC(=O)O)NC(=O)[C@H](CCCN=C(N)N)NC(=O)CNC(=O)[C@H](C)N)C(=O)N[C@@H](CCCCN)C(=O)N[C@@H](C)C(=O)N[C@@H](Cc1ccc(O)cc1)C(=O)N[C@@H](CC(C)C)C(=O)N[C@@H](CCCCN)C(=O)N[C@@H](CCCCN)C(=O)N[C@@H](CCC(=O)O)C(=O)N[C@H](C(=O)N[C@@H](CCCCN)C(=O)N[C@@H](CCCCN)C(=O)N[C@@H](CCCCN)C(=O)N[C@@H](Cc1c[nH]c2ccccc12)C(=O)N[C@@H](CCCCN)C(=O)N[C@@H](CCCN=C(N)N)C(=O)N[C@@H](C)C(=O)N[C@H](C(=O)N[C@H](C(=O)N[C@@H](C)C(=O)N[C@@H](Cc1c[nH]c2ccccc12)C(=O)O)[C@@H](C)CC)C(C)C)[C@@H](C)CC` [AGRESIKAYLKKEIKKKWKRAVIAW]?
Answer: MIC [1]: 16 µM (≈ 48 µg/mL); MIC [2]: 16 µM (≈ 48 µg/mL); MIC [3]: ≥ 128 µM; MIC (Escherichia coli BL21): 4 µM (≈ 12 µg/mL)

Question: How did the MIC [1] turn out when `CC[C@H](C)[C@H](NC(=O)[C@H](Cc1ccccc1)NC(=O)[C@H](C)NC(=O)[C@H](CCCCN)NC(=O)[C@H](CCCCN)NC(=O)CNC(=O)[C@H](CCCN=C(N)N)NC(=O)[C@H](CCCCN)NC(=O)[C@H](CCCN=C(N)N)NC(=O)[C@H](CC(C)C)NC(=O)[C@H](CCC(=O)O)NC(=O)[C@H](CCC(=O)O)NC(=O)[C@H](CCCCN)NC(=O)[C@H](CC(C)C)NC(=O)[C@H](Cc1ccc(O)cc1)NC(=O)[C@H](CC(C)C)NC(=O)[C@@H](NC(=O)[C@H](CC(C)C)NC(=O)[C@H](C)NC(=O)[C@H](CCC(N)=O)NC(=O)[C@H](CCCN=C(N)N)NC(=O)CNC(=O)[C@H](C)N)[C@@H](C)O)C(=O)N[C@@H](C)C(=O)N[C@@H](Cc1c[nH]c2ccccc12)C(=O)O` [AGRQALTLYLKEELRKRGKKAFIAW] was run?
Answer: > 128 µM

Question: What about the MIC [2] of the same compound?
Answer: 16 µM (≈ 47.2 µg/mL)

Question: What about the MIC (Escherichia coli BL21) of the same compound?
Answer: ≥ 32 µM

Question: For `CC(C)C[C@H](NC(=O)[C@H](Cc1c[nH]c2ccccc12)NC(=O)CNC(=O)[C@H](CC(C)C)NC(=O)[C@@H](N)Cc1ccccc1)C(=O)N[C@@H](Cc1ccccc1)C(=O)N[C@@H](CCCCN)C(=O)N[C@@H](Cc1c[nH]c2ccccc12)C(=O)N[C@@H](C)C(=O)N[C@@H](CO)C(=O)N[C@@H](CCCCN)C(N)=O` [FLGWLFKWASK], which MIC [4] is on record?
Answer: 9.04 µM (≈ 12.5 µg/mL)

Question: What about the MIC [5] of the same compound?
Answer: 36.2 µM (≈ 50 µg/mL)

Question: What about the MIC [6] of the same compound?
Answer: 18.1 µM (≈ 25 µg/mL)

Question: What about the MIC [7] of the same compound?
Answer: 18.1 µM (≈ 25 µg/mL)

Question: What about the MIC [8] of the same compound?
Answer: 145 µM (≈ 200 µg/mL)

Question: And the MIC [9]?
Answer: ≥ 36.2 µM

Question: What about the MIC [10] of the same compound?
Answer: 145 µM (≈ 200 µg/mL)

Question: What about the MIC [11] of the same compound?
Answer: 18.1 µM (≈ 25 µg/mL)

Question: And the MIC [12]?
Answer: 36.2 µM (≈ 50 µg/mL)

Question: For `CC[C@H](C)[C@H](NC(=O)[C@H](Cc1cnc[nH]1)NC(=O)CNC(=O)CN)C(=O)N[C@@H](CCCN=C(N)N)C(=O)N[C@@H](CCCN=C(N)N)C(=O)N[C@H](C(=O)N[C@H](C(=O)N[C@@H](CCCN=C(N)N)C(=O)N[C@@H](CCCCN)C(=O)N[C@H](C(=O)N[C@H](C(=O)N[C@@H](Cc1cnc[nH]1)C(=O)N[C@H](C(=O)N[C@H](C(=O)N[C@@H](CCCCN)C(=O)N[C@@H](CCCCN)C(N)=O)[C@@H](C)CC)[C@@H](C)CC)[C@@H](C)CC)[C@@H](C)CC)[C@@H](C)CC)[C@@H](C)CC` [GGHIRRIIRKIIHIIKK], which MIC (Pseudomonas aeruginosa) is on record?
Answer: > 16 µM

Question: And the MIC (Acinetobacter baumannii)?
Answer: 5.3 µM (≈ 10.9 µg/mL)

Question: What about the MIC (Streptococcus pneumoniae) of the same compound?
Answer: 8 µM (≈ 16.4 µg/mL)

Question: And the MIC [13]?
Answer: 16 µM (≈ 32.8 µg/mL)

Question: And the MIC (Enterococcus faecium)?
Answer: 8 µM (≈ 16.4 µg/mL)

Question: And the MIC (Klebsiella pneumoniae)?
Answer: 16 µM (≈ 32.8 µg/mL)

Question: What about the MIC [12] of the same compound?
Answer: > 16 µM

Question: Which results are given for `CC[C@H](C)[C@H](NC(=O)[C@H](CCCCN)NC(=O)[C@H](CCCCN)NC(=O)[C@H](CC(C)C)NC(=O)[C@@H](NC(=O)[C@H](CCCCN)NC(=O)[C@H](CCCCN)NC(=O)[C@@H](NC(=O)[C@@H](NC(=O)[C@H](CC(=O)O)NC(=O)[C@H](Cc1ccccc1)NC(=O)[C@H](CC(C)C)NC(=O)CN)C(C)C)[C@@H](C)CC)C(C)C)C(=O)NCC(=O)NCC(=O)N[C@@H](CC(C)C)C(N)=O` [GLFDVIKKVLKKIGGL]?
Answer: MIC [14]: 12.5 µM (≈ 21.6 µg/mL); MIC [15]: 6.3 µM (≈ 10.9 µg/mL); MIC [8]: 50 µM (≈ 86.4 µg/mL); MIC [12]: 6.3 µM (≈ 10.9 µg/mL)

Question: For `CC(=O)N[C@@H](CCCCN)C(=O)N[C@@H](C)C(=O)N[C@@H](C)C(=O)N[C@@H](CCCCN)C(=O)N[C@@H](C)C(=O)N[C@@H](C)C(=O)N[C@@H](CCCCN)C(=O)N[C@@H](CCCCN)C(=O)N[C@@H](C)C(=O)N[C@@H](C)C(=O)N[C@@H](CCCCN)C(=O)N[C@@H](C)C(=O)N[C@@H](C)C(=O)N[C@@H](Cc1c[nH]c2ccccc12)C(=O)N[C@@H](CCCCN)C(N)=O` [KAAKAAKKAAKAAWK], which MIC [5] is on record?
Answer: 130 µM (≈ 205 µg/mL)

Question: What about the MIC [6] of the same compound?
Answer: ≥ 130 µM

Question: And the MIC [7]?
Answer: ≥ 130 µM

Question: What about the MIC [8] of the same compound?
Answer: 130 µM (≈ 205 µg/mL)

Question: And the MIC [9]?
Answer: ≥ 130 µM

Question: What about the MIC [10] of the same compound?
Answer: 130 µM (≈ 205 µg/mL)

Question: And the MIC [11]?
Answer: ≥ 130 µM

Question: And the MIC [12]?
Answer: 130 µM (≈ 205 µg/mL)

Question: Which results are given for `CC(C)C[C@H](NC(=O)[C@H](CC(C)C)NC(=O)[C@H](CCCCN)NC(=O)[C@@H](NC(=O)[C@@H](NC(=O)[C@H](CO)NC(=O)[C@H](CCCCN)NC(=O)[C@H](Cc1ccccc1)NC(=O)[C@@H](NC(=O)[C@@H](N)CCCCN)C(C)C)C(C)C)C(C)C)C(=O)N[C@@H](CCC(=O)O)C(=O)N[C@@H](CCCCN)C(=O)N[C@H](C(=O)N[C@H](C(=O)N[C@@H](CC(C)C)C(=O)N[C@@H](CCCCN)C(=O)N[C@@H](CCCCN)C(=O)N[C@@H](Cc1ccccc1)C(=O)N[C@@H](CO)C(=O)N[C@@H](CCCCN)C(N)=O)C(C)C)[C@@H](C)O` [KVFKSVVKLLEKTVLKKFSK]?
Answer: MIC [16]: 64 µM (≈ 150 µg/mL); MIC [8]: 32 µM (≈ 75.2 µg/mL); MIC [17]: ≥ 32 µM; MIC [12]: 64 µM (≈ 150 µg/mL)

Question: For `CC[C@H](C)[C@H](NC(=O)[C@H](CCCCN)NC(=O)[C@H](CCCCN)NC(=O)[C@@H](N)CC(C)C)C(=O)NCC(=O)N[C@@H](CCCCN)C(=O)N[C@@H](CCCCN)C(=O)N[C@H](C(=O)N[C@@H](Cc1c[nH]c2ccccc12)C(=O)N[C@@H](CCCN=C(N)N)C(=O)N[C@H](C(=O)NCC(=O)N[C@@H](Cc1c[nH]c2ccccc12)C(=O)N[C@@H](CC(N)=O)C(=O)N[C@@H](Cc1c[nH]c2ccccc12)C(=O)N[C@@H](CCCN=C(N)N)C(=O)O)C(C)C)[C@@H](C)CC` [LKKIGKKIWRVGWNWR], which MIC [18] is on record?
Answer: ≥ 61.9 µM

Question: And the MIC [19]?
Answer: 61.9 µM (≈ 128 µg/mL)

Question: And the MIC [20]?
Answer: 16.1 µM (≈ 33.4 µg/mL)

Question: What about the MIC [21] of the same compound?
Answer: ≥ 32.3 µM

Question: And the MIC [22]?
Answer: ≥ 61.9 µM

Question: How did the MIC [23] turn out when `CC[C@H](C)[C@H](NC(=O)[C@H](CCCCN)NC(=O)CNC(=O)[C@H](Cc1ccccc1)NC(=O)[C@H](CC(C)C)NC(=O)[C@@H](N)CC(C)C)C(=O)N[C@H](C(=O)N[C@@H](CO)C(=O)N[C@@H](CCCN=C(N)N)C(=O)N[C@@H](CC(C)C)C(=O)N[C@@H](CC(C)C)C(=O)NCC(=O)N[C@@H](CC(N)=O)C(=O)O)[C@@H](C)CC` [LLFGKIISRLLGN] was run?
Answer: ≥ 250 µM
